{
  "source": "patent US20180353445A1",
  "about": "“METHODS AND COMPOSITIONS RELATING TO PROTEASOME INHIBITOR RESISTANCE” (Whitehead Institute for Biomedical Research, priority 2017, published 2018)",
  "key": {"T47D cells": {"tested_on": "T47D cells", "assay": "Cell viability, T47D cells with doxycycline-inducible PSMD2 shRNA (KD) vs control", "format": "cell-based, human"}, "IMR32 and Kelly cells": {"tested_on": "IMR32 and Kelly cells", "assay": "Viability of IMR32 vs Kelly neuroblastoma cells", "format": "cell-based, human", "quoted_text": "FIGS. 24A-24C: (FIG. 24A) Plot showing the effect of various concentrations of ABT-263 on IMR32 and Kelly cells. (FIG. 24B) Plot showing effect of various concentrations of disulfiram on IMR32 and Kelly cells. (FIG. 24C) Plot showing effect of various concentrations of elesclomol on IMR32 and Kelly cells. Fold viability refers to the number of viable cells of the indicated type after culture in the presence of the indicated test compound for 72 hours divided by the number of viable cells of that type after culture in the absence of the test compound.\nFIG. 28: The relative viability was examined in IMR32 cells and Kelly cells after addition of indicated concentrations of the different BCL2 family inhibitors. ABT-263 (BCL2, BCLXL, MCL1) (upper left panel), ABT-199 (BCL2) (upper right panel), WEHI-539 (BCLXL) (lower left panel), A-1210477 (MCL1) (lower right panel). The relative effect on cell growth was analyzed 72 hours after addition of drugs."}, "cysteine desulfurase": {"target": "T1, cysteine desulfurase (Homo sapiens, UniProt Q9Y697)", "T1 construct": "made in house", "T1 sequence (Q9Y697 56-457)": "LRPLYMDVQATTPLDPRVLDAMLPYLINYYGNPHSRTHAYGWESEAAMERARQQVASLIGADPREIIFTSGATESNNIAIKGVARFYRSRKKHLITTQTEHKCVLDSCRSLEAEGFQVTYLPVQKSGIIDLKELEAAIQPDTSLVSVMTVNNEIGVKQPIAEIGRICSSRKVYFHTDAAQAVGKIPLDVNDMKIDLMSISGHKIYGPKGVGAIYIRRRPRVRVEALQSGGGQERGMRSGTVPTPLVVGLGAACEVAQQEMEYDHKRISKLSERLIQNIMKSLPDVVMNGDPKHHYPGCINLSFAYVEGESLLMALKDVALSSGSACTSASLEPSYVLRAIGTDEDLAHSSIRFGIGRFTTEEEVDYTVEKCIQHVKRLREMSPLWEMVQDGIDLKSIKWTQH", "T1 sequence (Q9HD34 whole entry, further chain)": "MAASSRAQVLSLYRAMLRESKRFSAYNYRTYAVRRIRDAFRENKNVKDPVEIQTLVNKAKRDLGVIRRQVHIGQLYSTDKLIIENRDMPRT", "T1 sequence (P0A6A8 2-78, further chain)": "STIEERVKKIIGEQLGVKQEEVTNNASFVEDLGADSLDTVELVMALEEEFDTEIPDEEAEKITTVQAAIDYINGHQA", "assay": "Cysteine desulfurase activity assay", "format": "biochemical", "protocol": "The in vitro Fe—S cluster assembly was carried out with reduced FDX1 as the reducing agent and detected by following the increase of absorbance at 456 tun following the addition of either of 5× (green) or 10× (yellow, both relative to FDX1) compound-1. […] Fe—S formation was monitored by following the increase of absorbance at 456 nm. […] Cysteine desulfurase activity assay carried out with the indicated concentrations of elesclomol."}, "[1]": {"target": "T2, cysteine desulfurase (NFS1-ISD11-Acp)2 (SDA) (Homo sapiens, UniProt Q9Y697)", "T2 construct": "made in house", "T2 sequence (Q9Y697 56-457)": "as the sequence (Q9Y697 56-457) above", "T2 sequence (P0A6A8 2-78, further chain)": "as the sequence (P0A6A8 2-78, further chain) above", "T2 sequence (Q9HD34 whole entry, further chain)": "as the sequence (Q9HD34 whole entry, further chain) above", "assay": "Cysteine desulfurase assay (DTT as the reductant)", "format": "biochemical", "from_the_text": "Fe—S clusters are generated from sulfur extracted from cysteine by the iron sulfur-cluster (ISC) core complex (NFS1-ISD11-Acp-ISCU)2 and iron. A reductant (FDX1 or FDX2) is required for Fc-S cluster biosynthesis (Lill and Muhlenhoff, 2006; Py and Barras, 2010) (FIG. 53A). To investigate the effect of elesclomol on mitochondrial Fe—S cluster biosynthesis, we utilized in vitro Fe—S cluster assembly assays. […] As further confirmation, we examined the effect of elesclomol on electron transfer from reduced FDX1 to the ISC core complex upon the addition of cysteine.\nCysteine desulfurase assay—The protein samples used in the nisteine desulfurase assay and Fe—S cluster assembly experiments were prepared in an anaerobic chamber (Coy Laboratory) with samples buffer-exchanged extensively prior to the experiments with anaerobic buffer containing 20 mM HEPES at pH 7.6 and 150 mM NaCl (HN buffer). The reaction volumes in all the experiments were kept to […]. […]\nThe cysteine desulfurase assay reactions (300 μL in HN buffer) contained 10 μM SDA. […] The quenched reaction was incubated for 15 min at room temperature, and then the absorbance at 670 nm was measured and used to estimate the amount of sulfide by comparison to a standard curve obtained from known concentrations of Na2S."}, "FDX1": {"target": "T3, FDX1 (Homo sapiens, UniProt P10109)", "T3 construct": "made in house", "T3 sequence (P10109 62-184)": "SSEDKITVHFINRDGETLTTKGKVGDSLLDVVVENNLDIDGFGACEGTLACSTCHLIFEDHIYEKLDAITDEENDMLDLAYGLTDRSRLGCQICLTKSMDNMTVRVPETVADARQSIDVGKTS", "assay": "NMR titration of elesclomol against [U-15N]-FDX1 (2D 1H,15N TROSY-HSQC)", "format": "binding", "protocol": "Most of these residues map to the α2, α3 helices and the β5 strand within the FDX1 structure (FIG. 53E).\nNMR Spectroscopy—NMR spectra were collected at the National Magnetic Resonance Facility at Madison on a 750 MHz (^1H) Balker with a z-gradient cryogenic probe. The buffer used for NMR samples (HNT buffer) contained 20 mM HEPES at pH 7.6, 150 mM NaCl, and 2 mM TCEP. All sample temperatures were regulated at 25° C. NMRPipe software (Delaglio et al., 1995) was used to process the raw NMR data and NMRFAM-SPARKY (Lee et al., 2015) software was utilized to visualize and analyze the processed NMR data.\nTo study the interactions of FDX1 with elesclomol, 0.2 mM [U-^15N]-FDX1 in HNT buffer were placed in 5 mm Shigemi NMR tubes, and 2D ^1H,^15N TROSY-HSQC spectra were collected before and after titration of 5 equivalent molar ratio of elesclomol dissolved in HNT buffer.\nChemical shift perturbations (ΔδHN absolute value ppm) were calculated by\nwhere Δ67 H and ΔδN are the chemical shift changes in the ^1H and ^15N dimensions, respectively."}},
  "data": [
    {"smiles": "CC(C)C[C@H](NC(=O)[C@H](Cc1ccccc1)NC(=O)c1cnccn1)B(O)O", "note": "[bortezomib]", "values": [
      {"measurement": "resistance of cells harboring PSMD2 shRNA vs parental line (EC50)", "setting": "T47D cells; T47D, transient PSMD2 reduction", "value": "EC50 values increased considerably"},
      {"measurement": "resistance after transient reduction of PSMD2", "setting": "T47D cells; doxycycline-regulated PSMD2 shRNA", "value": "significantly increased resistance"},
      {"measurement": "resistance of IMR32 cells compared to Kelly cells", "setting": "IMR32 and Kelly cells", "value": "increased resistance"}
    ]},
    {"smiles": "CN(NC(=O)CC(=O)NN(C)C(=S)c1ccccc1)C(=S)c1ccccc1", "note": "[elesclomol]", "values": [
      {"measurement": "activity of cysteine desulfurase", "setting": "cysteine desulfurase", "value": "does not inhibit"},
      {"measurement": "effect on cysteine desulfurase activity", "setting": "[1]", "value": "no inhibitory effect"},
      {"measurement": "binding to FDX1 by NMR", "setting": "FDX1; 0.2 mM [U-15N]-FDX1, 5 equivalent molar ratio of elesclomol", "value": "directly binds FDX1"},
      {"measurement": "chemical shift perturbation (Δδ) of the most affected FDX residues", "setting": "FDX1; I58-F59, D61, K66, D68, A69, D72-D76, L84, T104-R106", "value": "> 0.01", "unit": "ppm"}
    ]}
  ]
}
